Measurements taken from patent US20260034135A1, “USE OF N6-BENZYLAMINOPURINE AS AN APPETITE SUPPRESSANT” (THE GOVERNING COUNCIL OF THE UNIVERSITY OF TORONTO, priority 2022, published 2026).

What was measured:
[1] = BAP in a honey emulsion fed to CD-1 mice: body weight, food and water intake; assay type: in vivo
Description: (§1) Male and female CD-1 mice were received at age 6-7 weeks and were acclimated on a chow diet for one week prior to experimentation. After acclimation to the facility, mice were switched to a 60% HFD. The male and female mice received HFD for 4 (male) and 5 or 16 (female) weeks prior to BAP exposure. The mice were then acclimated to the emulsion feeding protocol for 4 days prior to the start of BAP exposure using the method described in Kuster et al. (12). Two days prior to the start of the exposure period, a cohort of male mice underwent acute general anesthetic with isoflurane for baseline Bruker scanning to quantify peripheral fat mass. The mice were then weight-matched and randomly assigned to either the control or BAP group. During the exposure period, mice were restrained via scruffing (held at back of neck) and fed 200 μL of an emulsion containing 0.5% carboxymethyl cellulose and 50% honey with or without BAP at 2 hr prior to lights off at the facility daily.
[…] All mice were kept on the 60% HFD throughout the exposure period. […] On day 12, the one cohort of male mice underwent general anesthetic for the purpose of post-experiment Bruker scanning. The male mice were then fed their assigned emulsion 2 hr prior to sacrificing and tissue collection. […] Hypothalamic collected from the mice were then used to isolate RNA and quantify gene expression using quantitative reverse transcription polymerase chain reaction (qRT-PCR).

[2] = Peripheral fat mass by Bruker scan; assay type: in vivo, CD-1 mice; conditions: male CD-1, HFD, BAP emulsion 11 days, Bruker scan before and after
Description: as §1
The BAP concentrations were calibrated weekly to achieve a dosage of 300 mg/kg/day. All mice were kept on the 60% HFD throughout the exposure period. […] Hypothalamic collected from the mice were then used to isolate RNA and quantify gene expression using quantitative reverse transcription polymerase chain reaction (qRT-PCR).

[3] = system: primary hypothalamic neurons; test: Feeding neuropeptide expression in primary hypothalamic culture (qRT-PCR); assay type: cell-based, CD-1 mice; conditions: 100 μM BAP, 16 hr, male- and female-derived cultures (both sexes)
Description: (§2) For cell culture experiments, total RNA was isolated using PureLink RNA isolation kit (Thermofisher Scientific, Burlington, ON, Canada) according to the manufacturer's instruction with on column DNase step (PureLink DNAse kit) or DNase I treatment to remove genomic DNA. For mouse experiments, total RNA was isolated using mirVana PARIS RNA and native protein isolation kit (Thermofisher Scientific). RNA quality and quantity were measured using Nanodrop 2000 and 500-1000 ng of complimentary DNA (cDNA) was synthesized with High Capacity cDNA Reverse Transcription kit (Applied biosystems, Thermofisher Scientific). Quantitative reverse transcription polymerase chain reaction (RT-qPCR) was performed with 12.5 ng of cDNA amplified with Platinum SYBR green qPCR SuperMix-UDG with ROX on an Applied Biosystems Prism 7900HT or PowerTrack Green Master Mix on an Applied Biosystems QuantStudio 5 and gene specific primers as per manufacturer's instructions (Table 1). Data was analyzed using […] and normalized to reference gene, either 60S ribosomal protein L7 (Rpl7) or Histone 3a (His).
Because the BAP was being fed to the mice, it is also important to determine what are the direct effects of BAP on native hypothalamic neurons, since the results may be due to an indirect effect from the periphery. Hypothalamus were extracted from male and female CD-1 mice fed a normal chow diet, and primary hypothalamic neurons were cultured from individual mice. The neurons were treated with 100 µM of BAP for 16 hr to assess the effect of BAP on feeding-related neuropeptide expression.

[4] = system: mHypoE-44 cell line; test: Gene expression by qRT-PCR in mHypoE-44 hypothalamic cell line; assay type: cell-based, mouse; conditions: for effect of PKA inhibition on BAP effect on Npy expression: n=2
Description: (§3) Hypothalamic neurons from embryonic and adult mice were previously immortalized to generate the clonal cell lines mHypoE-46, mHypoE-44, mHypoE-41, mHypoE-38, mHypoA-59, a FAC-sorted POMC/GFP mouse-derived cell line, mHypoA-POMC/GFP-2, and a mixed culture mHypoA-Bmal1-WT/F cell line (6, 13, 14). The mHypoE-46, mHypoE-44, and mHypoA-Bmal1-WT/F lines were cultured in DMEM containing 1000 mg/L glucose supplemented with 5% FBS and 1% pen/strep. The mHypoE-41, mHypoE-38, and mHypoA-59 cell lines were cultured in DMEM containing 4500 mg/L glucose supplemented with 2% FBS and 1% pen/strep. The mHypoA-POMC/GFP-2 line was cultured in DMEM containing 1000 mg/L glucose supplemented with 2% FBS and 1% pen/strep. All cells were maintained in 5% CO2 at 37° C. BAP was initially dissolved in DMSO solvent (vehicle control) to achieve 1000x the intended dose. The BAP solution was then diluted 1:1000 with the growth media used for the cell line. For co-treatment experiments, the vehicle control for ATP, UDP, and PKI was water, and for the H89 PKA inhibitor was DMSO. Neuropeptide gene expression levels were determined by qRT-PCR.
as §2

[5] = system: mHypoA-59 cell line; test: Gene expression by qRT-PCR in mHypoA-59 hypothalamic cell line; assay type: cell-based, mouse; conditions: 100 μM BAP, 16 hr
Description: as §3, §2

[6] = system: B16 melanoma cells; conditions: protein kinase A-dependent manner; cited from earlier work
[7] = male CD-1, 60% HFD, 300 mg/kg/day BAP emulsion, 11 days, cohort CCBR
[8] = male CD-1, 60% HFD, 300 mg/kg/day BAP emulsion, 14 days, cohort BSF
[9] = male CD-1, 60% HFD, 300 mg/kg/day BAP emulsion, 28 days, cohort BSF

## c1ccc(CNc2ncnc3nc[nH]c23)cc1 [BAP, N6-benzylaminopurine]
[1]; female CD-1, 16 weeks 60% HFD then 300 mg/kg/day BAP emulsion 36 days, cohort BSF
  body weight gain on HFD: did not gain weight
[1]; female CD-1, 60% HFD, 300 mg/kg/day BAP emulsion 36 days, cohort BSF
  food intake vs control: did not eat significantly less HFD
[1]; male CD-1, 60% HFD, 75 mg/kg/day BAP emulsion, 14 days
  body weight change vs control: no change
[1]; male CD-1, 60% HFD, 150 mg/kg/day BAP emulsion, 14 days, cohort BSF
  body weight gain on HFD: did not gain weight
[1]; [7]
  body weight loss: 5%
  reduction in HFD food intake vs control group over the exposure period: 22%
[1]; [8]
  body weight loss: 1.3%
  daily average food intake vs control: did not eat significantly less HFD
[1]; male CD-1, 60% HFD, 300 mg/kg/day BAP emulsion, 14 days, dose study, cohort BSF
  body weight loss: 1.1%
[1]; male CD-1, 60% HFD, 300 mg/kg/day BAP emulsion, 14 days, dose study, significant by unpaired t-test at 8 days onward
  food intake: trend towards a decrease in food intake that did not reach significance
[1]; [9]
  body weight loss: 5%
  reduction in daily average food intake vs control: 13%
[1]; male CD-1, 60% HFD, 75, 150, 300 mg/kg BAP emulsion, 14 days
  cumulative daily food intake: do not have significant changes in food intake
[2]
  net peripheral fat: do not observe any significant changes
  peripheral fat mass percentage: do not observe any significant changes
[3]
  Agrp expression: no effects
  Npy expression: no effects
  Pomc expression: significantly increase
[4]; 100 μM BAP + 1 μM H89, 16 hr
  effect of PKA inhibition on BAP effect on Npy expression: unable to block the effects of BAP on Npy expression
[4]; 100 μM BAP + 10 μM PKI, 16 hr
  effect of PKA inhibition on BAP effect on Npy expression: unable to block the effects of BAP on Npy expression
[4]; 100 μM BAP + 100 μM ATP, 16 hr
  Npy mRNA under co-treatment with ATP: still able to overcome this induction
[4]; 100 μM BAP + 100 μM UDP, 16 hr
  Npy mRNA under co-treatment with UDP (effect of UDP on BAP repression): block the repression of Npy levels by BAP
[4]; 100 μM BAP + 100 μM UTP, 16 hr, n=2 preliminary
  Npy mRNA under co-treatment with UTP (effect of UTP on BAP repression): appears to be able to block the repression of Npy levels by BAP
[4]; 100 μM BAP, 16 hr
  Agrp mRNA expression: increased
  Npy mRNA expression: supressed
[4]; 100 μM BAP, at 8 and 16 hr (tested 2, 4, 8, 16, 24 hr)
  Npy mRNA expression, time course: significantly downregulate
[4]; dose curve, 16 hr
  BAP dose with strongest Npy decrease: 500 µM
[4]; increasing concentrations of BAP, 16 hr
  Npy expression, dose curve: decreases Npy in a dose dependent manner
[5]
  Npy mRNA expression: no effect
  feeding neuropeptide expression (Npy, Agrp) in response to BAP: no changes in feeding neuropeptide expression
[6]
  melanogenesis: induce melanogenesis
